Experimental data from patent US9505726B2, “Substituted biphenyl amides as P2X3 and P2X2/3 antagonists” (Roche Palo Alto LLC, priority 2009, dated 2016).

Each compound was assayed against T1, rat P2X3 receptor (Rattus norvegicus, UniProt P49654) (assay: P2X3 FLIPR (Fluorometric Imaging Plate Reader) assay). Details: CHO-K1 cells transfected with cloned rat P2X3; agonist α,β-meATP 1 μM; Fluo-3 AM calcium fluorescence.
T1 construct: expressed in transfected cells; host or cells: CHO-K1
T1 sequence (P49654 1-397): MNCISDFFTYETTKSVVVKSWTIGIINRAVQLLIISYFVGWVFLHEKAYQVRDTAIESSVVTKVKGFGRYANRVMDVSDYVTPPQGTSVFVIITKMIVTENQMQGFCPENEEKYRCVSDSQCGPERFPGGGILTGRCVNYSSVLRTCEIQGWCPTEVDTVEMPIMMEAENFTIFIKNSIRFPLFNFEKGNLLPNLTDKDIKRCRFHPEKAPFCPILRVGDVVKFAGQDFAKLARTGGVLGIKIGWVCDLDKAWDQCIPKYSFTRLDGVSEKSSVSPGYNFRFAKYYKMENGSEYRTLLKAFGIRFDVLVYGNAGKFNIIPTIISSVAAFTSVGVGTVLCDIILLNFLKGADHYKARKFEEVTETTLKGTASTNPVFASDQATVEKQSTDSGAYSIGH
Format: cell-based
Description: CHO-K1 cells were transfected with cloned rat P2X3 or human P2X2/3 receptor subunits and passaged in flasks. 18-24 hours before the FLIPR experiment, cells were released from their flasks, centrifuged, and resuspended in nutrient medium at 2.5×10^5 cells/ml. The cells were aliquoted into black-walled 96-well plates at a density of 50,000 cells/well and incubated overnight in 5% CO2 at 37° C. On the day of the experiment, cells were washed in FLIPR buffer (calcium- and magnesium-free Hank's balanced salt solution, 10 mM HEPES, 2 mM CaCl2, 2.5 mM probenecid; FB). Each well received 100 μl FB and 100 μl of the fluorescent dye Fluo-3 AM [2 μM final conc.]. After a 1 hour dye loading incubation at 37° C., the cells were washed 4 times with FB, and a final 75 μl/well FB was left in each well.
Test compounds (dissolved in DMSO at 10 mM and serially diluted with FB) or vehicle were added to each well (25 μl of a 4× solution) and allowed to equilibrate for 20 minutes at room temperature. The plates were then placed in the FLIPR and a baseline fluorescence measurement (excitation at 488 nm and emission at 510-570 nm) was obtained for 10 seconds before a 100 μl/well agonist or vehicle addition. The agonist was a 2X solution of α,β-meATP producing a final concentration of 1 μM (P2X3) or 5 μM (P2X2/3). Fluorescence was measured for an additional 2 minutes at 1 second intervals after agonist addition. A final addition of ionomycin (5 μM, final concentration) was made to each well of the FLIPR test plate to establish cell viability and maximum fluorescence of dye-bound cytosolic calcium. Peak fluorescence in response to the addition of α,β-meATP (in the absence and presence of test compounds) was measured and inhibition curves generated using nonlinear regression. PPADS, a standard P2X antagonist, was used as a positive control.

SMILES | P2X3 (pIC50 values for the P2X3 receptor)
COCC(C)NC(=O)c1cc(NC(=O)c2nc(C)oc2C)cc(-c2ccc(C)cc2)c1 (stereo not drawn) [Compound 13, 2,5-Dimethyl-oxazole-4-carboxylic acid [5-(2-methoxy-1-methyl-ethylcarbamoyl)-4′-methyl-biphenyl-3-yl]-amide] | 5.93
COCC(C)NC(=O)c1cc(NC(=O)c2cc(C)nn2C)cc(-c2ccc(C)cc2)c1 (stereo not drawn) [Compound 15, 2,5-Dimethyl-2H-pyrazole-3-carboxylic acid [5-(2-methoxy-1-methyl-ethylcarbamoyl)-4′-methyl-biphenyl-3-yl]-amide] | 5.34
Cc1ccc(-c2cc(C(=O)N[C@@H](C)CO)cc(N(C)C(=O)C(C)C)c2)cc1 [Compound 40, 5-(Isobutyryl-methyl-amino)-4′-methyl-biphenyl-3-carboxylic acid ((S)-2-hydroxy-1-methyl-ethyl)-amide] | 8.3
COCC(C)NC(=O)c1cc(NC(=O)c2cccs2)cc(-c2ccc(C)cc2)c1 (stereo not drawn) [Compound 4, Thiophene-2-carboxylic acid [5-(2-methoxy-1-methyl-ethylcarbamoyl)-4′-methyl-biphenyl-3-yl]-amide] | 5.51
COC[C@@H](C)NC(=O)c1cc(-c2ccc(F)cc2F)cc(N(C)C(=O)C(C)C)c1 [Compound 65, 2′,4′-Difluoro-5-(isobutyryl-methyl-amino)-biphenyl-3-carboxylic acid ((R)-2-methoxy-1-methyl-ethyl)-amide] | 5.38
COCC(C)NC(=O)c1cc(NC(=O)c2ccco2)cc(-c2ccc(C)cc2)c1 (stereo not drawn) [Compound 3, Furan-2-carboxylic acid [5-(2-methoxy-1-methyl-ethylcarbamoyl)-4′-methyl-biphenyl-3-yl]-amide] | 5.66
COCC(C)NC(=O)c1cc(NC(=O)c2ccccc2)cc(-c2ccc(C)cc2)c1 (stereo not drawn) [Compound 5, 5-Benzoylamino-4′-methyl-biphenyl-3-carboxylic acid (2-methoxy-1-methyl-ethyl)-amide] | 5.69
Cc1ccc(-c2cc(C(=O)NC(C)c3cnccn3)cc(N(C)C(=O)C(C)C)c2)cc1 (stereo not drawn) [Compound 33, 5-(Isobutyryl-methyl-amino)-4′-methyl-biphenyl-3-carboxylic acid (1-pyrazin-2-yl-ethyl)-amide] | 8.3
COCC(C)NC(=O)c1cc(NC(=O)c2sccc2C)cc(-c2ccc(C)cc2)c1 (stereo not drawn) [Compound 14, 3-Methyl-thiophene-2-carboxylic acid [5-(2-methoxy-1-methyl-ethylcarbamoyl)-4′-methyl-biphenyl-3-yl]-amide] | 5.35
CCN(C(=O)C(C)C)c1cc(C(=O)N[C@@H](C)CO)cc(-c2ccc(C)cc2)c1 [Compound 49, 5-(Ethyl-isobutyryl-amino)-4′-methyl-biphenyl-3-carboxylic acid ((S)-2-hydroxy-1-methyl-ethyl)-amide] | 8.38
Cc1ccc(-c2cc(C(=O)N[C@@H](C)CO)cc(N(C)C(=O)C(C)C)c2)nc1 [Compound 72, N-((S)-2-Hydroxy-1-methyl-ethyl)-3-(isobutyryl-methyl-amino)-5-(5-methyl-pyridin-2-yl)-benzamide] | 7.58
Cc1ccc(-c2cc(C(=O)NCc3cnccn3)cc(N(C)C(=O)C(C)C)c2)cc1 [Compound 62, 5-(Isobutyryl-methyl-amino)-4′-methyl-biphenyl-3-carboxylic acid (pyrazin-2-ylmethyl)-amide] | 8.14
CCN(C(=O)C1CCOCC1)c1cc(C(=O)NC(C)c2cnccn2)cc(-c2ccc(C)cc2)c1 (stereo not drawn) [Compound 41, Tetrahydro-pyran-4-carboxylic acid ethyl-[4′-methyl-5-(1-pyrazin-2-yl-ethylcarbamoyl)-biphenyl-3-yl]-amide] | 6.86
COCC(C)NC(=O)c1cc(NC(=O)c2cc(C)cs2)cc(-c2ccc(C)cc2)c1 (stereo not drawn) [Compound 1, 4-Methyl-thiophene-2-carboxylic acid [5-(2-methoxy-1-methyl-ethylcarbamoyl)-4′-methyl-biphenyl-3-yl]-amide] | 6.31
Cc1ccc(-c2cc(C(=O)NC(C)c3cnccn3)cc(N(C)C(=O)C(C)C)c2)nc1 (stereo not drawn) [Compound 70, 3-(Isobutyryl-methyl-amino)-5-(5-methyl-pyridin-2-yl)-N-(1-pyrazin-2-yl-ethyl)-benzamide] | 8.11
CC(=O)N(c1cc(C(=O)NC(C)c2cnccn2)cc(-c2ccc(C)cc2)c1)c1ccncn1 (stereo not drawn) [Compound 24, 5-(Acetyl-pyrimidin-4-yl-amino)-4′-methyl-biphenyl-3-carboxylic acid (1-pyrazin-2-yl-ethyl)-amide] | 6.31
COCC(C)NC(=O)c1cc(NC(=O)c2ccc(C)cc2C)cc(-c2ccc(C)cc2)c1 (stereo not drawn) [Compound 8, 5-(2,4-Dimethyl-benzoylamino)-4′-methyl-biphenyl-3-carboxylic acid (2-methoxy-1-methyl-ethyl)-amide] | 5.35
CCN(C(=O)c1cccnc1)c1cc(C(=O)NC(C)c2cnccn2)cc(-c2ccc(C)cc2)c1 (stereo not drawn) [Compound 31, N-Ethyl-N-[4′-methyl-5-(1-pyrazin-2-yl-ethylcarbamoyl)-biphenyl-3-yl]-nicotinamide] | 5.91
Cc1ccc(-c2cc(C(=O)NCc3cnccn3)cc(N(C)C(=O)C(C)C)c2)c(Cl)c1 [Compound 56, 2′-Chloro-5-(isobutyryl-methyl-amino)-4′-methyl-biphenyl-3-carboxylic acid (pyrazin-2-ylmethyl)-amide] | 5.6
Cc1ccc(-c2cc(C(=O)N[C@@H](C)CO)cc(N(C)C(=O)C3CCCC3)c2)cc1 [Compound 50, 5-(Cyclopentanecarbonyl-methyl-amino)-4′-methyl-biphenyl-3-carboxylic acid ((S)-2-hydroxy-1-methyl-ethyl)-amide] | 7.85
COCC(C)NC(=O)c1cc(NC(=O)c2cc(C)on2)cc(-c2ccc(C)cc2)c1 (stereo not drawn) [Compound 16, 5-Methyl-isoxazole-3-carboxylic acid [5-(2-methoxy-1-methyl-ethylcarbamoyl)-4′-methyl-biphenyl-3-yl]-amide] | 5.4
Cc1ccc(-c2cc(C(=O)NCc3cnccn3)cc(N(C)C(=O)C(C)C)c2)c(F)c1 [Compound 60, 2′-Fluoro-5-(isobutyryl-methyl-amino)-4′-methyl-biphenyl-3-carboxylic acid (pyrazin-2-ylmethyl)-amide] | 7.8
CCN(C(C)=O)c1cc(C(=O)NC(C)c2cnccn2)cc(-c2ccc(C)cc2)c1 (stereo not drawn) [Compound 21, 5-(Acetyl-ethyl-amino)-4′-methyl-biphenyl-3-carboxylic acid (1-pyrazin-2-yl-ethyl)-amide] | 7.28
COCC(C)NC(=O)c1cc(NC(=O)c2ccc(C(F)(F)F)cc2Cl)cc(-c2ccc(C)cc2)c1 (stereo not drawn) [Compound 10, 5-(2-Chloro-4-trifluoromethyl-benzoylamino)-4′-methyl-biphenyl-3-carboxylic acid (2-methoxy-1-methyl-ethyl)-amide] | 5.87
COCC(C)NC(=O)c1cc(NC(=O)C2CCCCC2)cc(-c2ccc(C)cc2)c1 (stereo not drawn) [Compound 7, 5-(Cyclohexanecarbonyl-amino)-4′-methyl-biphenyl-3-carboxylic acid (2-methoxy-1-methyl-ethyl)-amide] | 5.49
CC(=O)N(C)c1cc(C(=O)NC(C)c2cnccn2)cc(-c2ccc(C)cc2)c1 (stereo not drawn) [Compound 20, 5-(Acetyl-methyl-amino)-4′-methyl-biphenyl-3-carboxylic acid (1-pyrazin-2-yl-ethyl)-amide] | 6.05

Same assay, conditions: CHO-K1 cells transfected with cloned rat P2X3; agonist α,β-meATP 1 μM; Fluo-3 AM calcium fluorescence; read-out: P2X3 (pIC50 values for the P2X3 receptor) (converted)

SMILES | IC50
Cc1ccc(-c2cc(C(=O)NC(C)c3cnccn3)cc(N(C)C(=O)C3CC3)c2)cc1 (stereo not drawn) [Compound 34, 5-(Cyclopropanecarbonyl-methyl-amino)-4′-methyl-biphenyl-3-carboxylic acid (1-pyrazin-2-yl-ethyl)-amide] | 10.7 nM
